Test results: patent US7429482B2, “Screening tools for discovery of novel anabolic agents” (United States of America as represented by the Department …, priority 2005, dated 2008)

What was measured:
MAFbx = test: Acute denervation: MAFbx mRNA in EDL and soleus (qPCR); assay type: in vivo, rat; settings: nandrolone 1.5 mg/kg/wk 14 days
Procedure: Male Wistar rats weighing 250 gm (Taconic Farms, Germantown, N.Y.) were provided food and water ad libitum and were housed in a temperature and humidity controlled environment providing a 12:12 hour day-night cycle. For surgical procedures, animals were anesthetized with ketamine/xylazine. The left sciatic nerve was exposed by blunt dissection, and a 1 to 2 mm piece of this nerve was excised just below the level of the femoral head. A sham surgery was performed on the right hind limb in which the sciatic nerve was exposed but was not transected. Model 2002 Alzet pumps were implanted subcutaneously on the back. […] A pellet containing 15 mg of testosterone (Innovative Research of America, Sarasota, Fla.) administered as a continuous infusion (5 mg/wk), or a pellet containing placebo, was inserted into a subcutaneous pouch. […] Because testosterone is known to have anabolic actions (Ferrando et al., Am J Physiol Endocrinol Metab 282: E601-E607, 2002; Mauras et al., J Clin Endocrinol Metab 83: 1886-1892, 1998; Urban et al., Am J Physiol 269: E820-E826, 1995), reductions in levels of this hormone could affect muscle mass and confound interpretation of the results. Animals were euthanized 14 days later by inhalation of carbon dioxide. […]
Total RNA was extracted from skeletal muscle (20 mg) by homogenization in guanidine thiocyanate using a Polytron followed by extraction using phenol-chloroform (Chomczynski and Sacchi, Anal Biochem 162: 156-159, 1987). […] Total RNA was then eluted and quantified by absorbance at 260 nm. […] Levels of gene expression in the denervated muscle were expressed as fold induction relative to muscle from the sham-denervated leg of animals administered vehicle. […] Fold-induction was determined using the 2^−ΔΔCt method, using expression of 18S RNA as the normalization control. […]

junB = test: Acute denervation: junB mRNA in EDL and soleus (qPCR); assay type: in vivo, rat
myogenin = test: Acute denervation: myogenin mRNA in EDL and soleus (qPCR); assay type: in vivo, rat
Procedure: Male Wistar rats weighing 250 gm (Taconic Farms, Germantown, N.Y.) were provided food and water ad libitum and were housed in a temperature and humidity controlled environment providing a 12:12 hour day-night cycle. For surgical procedures, animals were anesthetized with ketamine/xylazine. The left sciatic nerve was exposed by blunt dissection, and a 1 to 2 mm piece of this nerve was excised just below the level of the femoral head. A sham surgery was performed on the right hind limb in which the sciatic nerve was exposed but was not transected. Model 2002 Alzet pumps were implanted subcutaneously on the back. […] A pellet containing 15 mg of testosterone (Innovative Research of America, Sarasota, Fla.) administered as a continuous infusion (5 mg/wk), or a pellet containing placebo, was inserted into a subcutaneous pouch. […] Because testosterone is known to have anabolic actions (Ferrando et al., Am J Physiol Endocrinol Metab 282: E601-E607, 2002; Mauras et al., J Clin Endocrinol Metab 83: 1886-1892, 1998; Urban et al., Am J Physiol 269: E820-E826, 1995), reductions in levels of this hormone could affect muscle mass and confound interpretation of the results. Animals were euthanized 14 days later by inhalation of carbon dioxide. Following removal of blood from the left ventricle for determination of serum testosterone concentration by radioimmunoassay (MP Biomedicals, Costa Mesa, Calif.), soleus, extensor digitorum longus (EDL), gastrocnemius and plantaris muscles were excised and weighed, then were flash frozen on dry ice and stored at −80° C.
Total RNA was extracted from skeletal muscle (20 mg) by homogenization in guanidine thiocyanate using a Polytron followed by extraction using phenol-chloroform (Chomczynski and Sacchi, Anal Biochem 162: 156-159, 1987). Total RNA was further enriched using RNAeasy minicolumns (Qiagen, Valencia, Calif.) and treated with RNAse-free DNAse (Qiagen). Total RNA was then eluted and quantified by absorbance at 260 nm. One μg of total RNA was used to prepare a cDNA library by reverse transcription (iScirpt, Biorad, Hercules, Calif.). Libraries were diluted 1:25 with water prior to real time PCR. Real time PCR was conducted using an ABI 7500 real time PCR thermal cycler, ABI 2×PCR reagent, and ABI Taqman real time PCR probes for genes of interest. Levels of gene expression in the denervated muscle were expressed as fold induction relative to muscle from the sham-denervated leg of animals administered vehicle. […] Fold-induction was determined using the 2^−ΔΔCt method, using expression of 18S RNA as the normalization control. Primers and probes used for 18S RNA, MuRF1 and myostatin were obtained through the assays by Design service of Applied Biosystems and had the sequences are shown in Table 2; probes were 5′ labeled with FAM and 3′ modified with a non-fluorescent quencher. All other primer-probe combinations used were those contained in ABI Assay on Demand kits.

MAFbx mRNA = MAFbx mRNA half-life after actinomycin in C2C12.AR cells; assay type: cell-based, mouse
Procedure: (A) Rats were administered test agents as indicated in the figure for 7-days, at which time animals were sacrificed and MAFbx expression was determined in gastrocnemius muscles by qPCR. Data are mean values±SEM for at least 8 animals. * p<0.05 vs vehicle, t-test. (B) AR6 cells were seeded into 6-well plates and incubated overnight in growth medium. Medium was replaced with DMEM containing 2% horse serum followed by incubation for an additional 48 hours. Hormones or vehicle (EtOH) were added to the medium and cells were incubated overnight, at which time MAFbx mRNA levels were determined by qPCR and expressed as fold-induction versus levels in cells incubated with EtOH. Data are mean values±SEM for three determinations each performed in triplicate. * p<0.05 vs. EtOH (ANOVA). (C) Effect of testosterone on MAFbx mRNA half-life. C2C12.AR cells were incubated overnight in growth medium supplemented with testosterone or vehicle (EtOH). […] Levels of MAFbx mRNA are expressed as a percentage of those at time zero. […]
RNA was quantified by absorbance at 260 nm. […] Relative changes in expression were determined using the 2^−ΔΔCt method. Taqman Assay on Demand probes (Applied Biosystems) were used for all assays except rat 18S RNA, which was quantified using the following Assay on Demand Probes: Forward: […] […]

[1] = test system: starved, cultured muscle cells; test: Muscle breakdown in starved, cultured muscle cells; assay type: cell-based

SMILES | MAFbx expression (MAFbx; denervated EDL) | MAFbx expression (MAFbx; denervated soleus) | MAFbx expression (MAFbx; sham-denervated EDL or soleus) | junB expression (junB; denervated EDL) | junB expression (junB; denervated soleus) | increase in junB expression (junB; soleus and EDL from sham-denervated limbs, tendency) | myogenin expression (myogenin; denervated EDL, not significant) | myogenin expression as % of that in denervated muscle from placebo animals (myogenin; denervated soleus) | reduction of myogenin expression (myogenin; sham-denervated EDL, not significant) | reduction of myogenin expression (myogenin; sham-denervated EDL, trend, not significant) | reduction of myogenin expression (myogenin; sham-denervated soleus, did not reach significance) | reduction of myogenin expression (myogenin; sham-denervated soleus, trend, not significant) | half-life of MAFbx mRNA versus absence of testosterone (MAFbx mRNA) | muscle breakdown [1]
C[C@]12CC[C@H]3[C@@H](CCC4=CC(=O)CC[C@@H]43)[C@@H]1CC[C@@H]2O [nandrolone] | reductions were not statistically significant | significantly reduced | did not significantly alter | significantly reduced | tended to reduce | approximately 2 fold | tended to reduce | 70% | 50% | 27% | 50% | 48% | – | –
C[C@]12CC[C@H]3[C@@H](CCC4=CC(=O)CC[C@@]43C)[C@@H]1CC[C@@H]2O [testosterone] | – | – | – | – | – | – | – | – | – | – | – | – | not significantly different | reduced
